Source: patent publication US20220411846A1, “METHOD FOR PREDICTING THE VIRULENCE AND PATHOGENICITY OF GRAM-NEGATIVE BACTERIAL STRAINS” (priority 2019, published 2022)

Test system: strains of E. cloacae complex
Test: E. cloacae complex polymyxin B survival assay
Format: cell-based, Enterobacter cloacae complex
Conditions: 5 strains expressing 2-hydroxymyristate vs 5 strains not expressing it; 1, 3 and 10 μg/ml; 4 hours
Description: Strains of the Enterobacter complex were selected.
The Enterobacter strains preserved in a tube frozen with 30% glycerol are transplanted in a planktonic culture in 20 ml of an LB culture medium. After incubation at 37° C. overnight, 1 ml of the culture diluted to 10^7 is brought into contact with increasing concentrations of polymyxin B (1 μg/ml, 3 μg/ml and 10 μg/ml). A tube without antibiotic is added as a control.
All the tubes are incubated at 37° C. with shaking for an additional 4 hours. The cultures are then diluted and spread on LB agar Petri dishes.
The dishes are incubated at 37° C. overnight and the colonies are counted.
Percentage survival is computed as follows:
(CFU polymyxin B/CFU control)×100
5 strains of E. cloacae complex expressing 2-hydroxymyristate (2HM) and 5 strains of E. cloacae complex not expressing 2-hydroxymyristate (2HM) were exposed to different concentrations of polymyxin B for 4 hours.

In the case of polymyxin B [polymixin B], the “Survival of strains after exposure to polymyxin B (FIG. 6)” value is reported as “presence of 2-OH myristate on Lipid A generates resistance”.
